In brackets after ≈: the same amount, converted by molar mass. Read-outs that look alike come from different tables or passages of the source.
How the values were obtained:
[1] = system: Pseudomonas aeruginosa CCM 3955 (ATCC 27853); assay: Antibacterial microdilution broth (EUCAST); format: cell-based; details: read-out: MIC Pseudomonas aeruginosa
[2] = system: methicillin-resistant Staphylococcus aureus subsp. aureus (MRSA) CCM 4750 (ATCC 43300); assay: microbe, parasite or virus in culture; format: cell-based; details: read-out: MIC Methicillin-resistant Staphylococcus aureus subsp. aureus
[3] = system: Mycolicibacterium aurum DSM 43,999 (ATCC 23366); assay: Antimycobacterial microdilution (resazurin) vs M. aurum; format: cell-based; details: read-out: MIC M. aurum
[4] = system: Trichophyton interdigitale CCM 8377 (ATCC 9533); assay: Antifungal microdilution broth (EUCAST); format: cell-based; details: Trichophyton interdigitale, read-out: MIC Trichophyton interdigitale
[5] = system: Mycobacterium tuberculosis H37Rv CNCTC My 331/88 (ATCC 27294); assay: Microplate Alamar Blue assay vs Mtb H37Rv; format: cell-based; details: Mycobacterium tuberculosis
[6] = system: Staphylococcus aureus subsp. aureus CCM 4223 (ATCC 29213); assay: Antibacterial microdilution broth (EUCAST); format: cell-based; details: read-out: MIC Staphylococcus aureus subsp. aureus
[7] = system: Lichtheimia corymbifera CCM 8077; assay: Antifungal microdilution broth (EUCAST); format: cell-based; details: Lichtheimia corymbifera, read-out: MIC Lichtheimia corymbifera
[8] = system: Acinetobacter baumannii DSM 30007 (ATCC 19606); assay: Antibacterial microdilution broth (EUCAST); format: cell-based; details: read-out: MIC Acinetobacter baumannii
[9] = system: Aspergillus fumigatus ATCC 204305; assay: Antifungal microdilution broth (EUCAST); format: cell-based; details: Aspergillus fumigatus, read-out: MIC Aspergillus fumigatus
[10] = system: Candida tropicalis CCM 8264 (ATCC 750); assay: Antifungal microdilution broth (EUCAST); format: cell-based; details: read-out: MIC Candida tropicalis
[11] = system: Mycobacterium tuberculosis H37Ra ITM-M006710 (ATCC 9431); assay: Antimycobacterial microdilution (resazurin) vs Mtb H37Ra; format: cell-based
[12] = system: Enterococcus faecalis CCM 4224 (ATCC 29212); assay: Antibacterial microdilution broth (EUCAST); format: cell-based; details: read-out: MIC Enterococcus faecalis
[13] = system: Mycobacterium avium DSM 44,156 (ATCC 25291); assay: Antimycobacterial microdilution (resazurin) vs M. avium; format: cell-based; details: Mycobacterium avium, Middlebrook 7H9, resazurin; read-out: MIC M. avium
[14] = system: Candida parapsilosis CCM 8260 (ATCC 22019); assay: Antifungal microdilution broth (EUCAST); format: cell-based; details: Lodderomyces parapsilosis, read-out: MIC Candida parapsilosis
[15] = system: Escherichia coli CCM 3954 (ATCC 25922); assay: Antibacterial microdilution broth (EUCAST); format: cell-based; details: Escherichia coli, read-out: MIC Escherichia coli
[16] = system: Klebsiella pneumoniae CCM 4415 (ATCC 10031); assay: Antibacterial microdilution broth (EUCAST); format: cell-based; details: Klebsiella pneumoniae, read-out: MIC Klebsiella pneumoniae
[17] = system: Mycobacterium kansasii DSM 44,162 (ATCC 12478); assay: Antimycobacterial microdilution (resazurin) vs M. kansasii; format: cell-based; details: read-out: MIC M. kansasii
[18] = system: Candida albicans CCM 8320 (ATCC 24433); assay: Antifungal microdilution broth (EUCAST); format: cell-based; details: Candida albicans, read-out: MIC Candida albicans
[19] = system: Candida krusei CCM 8271 (ATCC 6258); assay: Antifungal microdilution broth (EUCAST); format: cell-based; details: Pichia kudriavzevii, read-out: MIC Candida krusei
[20] = system: Mycolicibacterium smegmatis DSM 43,465 (ATCC 607); assay: Antimycobacterial microdilution (resazurin) vs M. smegmatis; format: cell-based; details: Middlebrook 7H9, resazurin, read-out: MIC M. smeg.
[21] = system: Staphylococcus epidermidis CCM 4418 (ATCC 12228); assay: Antibacterial microdilution broth (EUCAST); format: cell-based; details: read-out: MIC Staphylococcus epidermidis
HepG2 cell line = assay: Cytotoxicity screening, CellTiter 96 assay; details: for IC50: Homo sapiens, HepG2, 24 h, read-out: IC50 HepG2
[22] = system: Aspergillus flavus CCM 8363; assay: Antifungal microdilution broth (EUCAST); format: cell-based; details: Aspergillus flavus, read-out: MIC Aspergillus flavus

Question: For Nc1ncc(Cl)nc1C(=O)Nc1ccc2c(c1)B(O)OC2 [Compound 7, 3-amino-6-chloro-N-(1-hydroxy-1,3-dihydrobenzo[c][1,2]oxaborol-6-yl)pyrazine-2-carboxamide], which melting point is on record?
Answer: 242.9 to 244.4 °C

Question: What about the MIC ([1]; 24 h) of the same molecule?
Answer: > 125 µM

Question: And the MIC ([1]; 48 h)?
Answer: > 125 µM

Question: What about the MIC ([2]; 24 h) of the same molecule?
Answer: > 125 µM

Question: What about the MIC ([2]; 48 h) of the same molecule?
Answer: > 125 µM

Question: And the MIC [3]?
Answer: > 1850 µM

Question: And the MIC ([4]; 72 h)?
Answer: > 125 µM

Question: And the MIC ([4]; 120 h)?
Answer: > 125 µM

Question: What about the MIC ([5]; pH 6.6, read-out: MIC Mtb H37Rv, MABA, Middlebrook 7H9 pH 6.6, recalculated from µg/mL) of the same molecule?
Answer: > 328 µM

Question: And the MIC ([6]; 24 h)?
Answer: > 125 µM

Question: And the MIC ([6]; 48 h)?
Answer: > 125 µM

Question: What about the MIC ([7]; CCM8077, 24 h) of the same molecule?
Answer: > 125 µM

Question: What about the MIC ([7]; CCM8077, 48 h) of the same molecule?
Answer: > 125 µM

Question: And the MIC ([8]; 24 h)?
Answer: > 125 µM

Question: What about the MIC ([8]; 48 h) of the same molecule?
Answer: > 125 µM

Question: And the MIC ([9]; ATCC204305, 24 h)?
Answer: > 125 µM

Question: What about the MIC ([9]; ATCC204305, 48 h) of the same molecule?
Answer: > 125 µM

Question: And the MIC ([10]; 24 h)?
Answer: > 125 µM

Question: And the MIC ([10]; 48 h)?
Answer: > 125 µM

Question: And the MIC ([11]; read-out: MIC Mtb H37Ra, Middlebrook 7H9, resazurin, recalculated from µg/mL)?
Answer: > 1850 µM

Question: What about the MIC ([12]; 24 h) of the same molecule?
Answer: > 125 µM

Question: What about the MIC ([12]; 48 h) of the same molecule?
Answer: > 125 µM

Question: And the MIC [13]?
Answer: 411 µM (≈ 125 µg/mL)

Question: And the MIC ([14]; 24 h)?
Answer: > 125 µM

Question: And the MIC ([14]; 48 h)?
Answer: > 125 µM

Question: What about the MIC ([15]; 24 h) of the same molecule?
Answer: > 125 µM

Question: What about the MIC ([15]; 48 h) of the same molecule?
Answer: > 125 µM

Question: And the MIC ([16]; 24 h)?
Answer: > 125 µM

Question: What about the MIC ([16]; 48 h) of the same molecule?
Answer: > 125 µM

Question: What about the MIC [17] of the same molecule?
Answer: > 1850 µM

Question: What about the MIC ([18]; 24 h) of the same molecule?
Answer: > 125 µM

Question: What about the MIC ([18]; 48 h) of the same molecule?
Answer: > 125 µM

Question: What about the MIC ([19]; 24 h) of the same molecule?
Answer: > 125 µM

Question: And the MIC ([19]; 48 h)?
Answer: > 125 µM

Question: And the MIC [20]?
Answer: 411 µM (≈ 125 µg/mL)

Question: What about the MIC ([21]; 24 h) of the same molecule?
Answer: > 125 µM

Question: What about the MIC ([21]; 48 h) of the same molecule?
Answer: > 125 µM

Question: And the IC50 (HepG2 cell line)?
Answer: > 100 µM

Question: What about the “toxicity to HepG2 up to highest tested concentration” value (HepG2 cell line; tested up to 500 µM (2, 3), 250 µM (12, 17), 100 µM (6, 7, 11) because of solubility) of the same molecule?
Answer: non-toxic

Question: And the MIC ([22]; CCM8363, 24 h)?
Answer: > 125 µM

Question: And the MIC ([22]; CCM8363, 48 h)?
Answer: > 125 µM

Question: With O=C(Nc1ccc2c(c1)B(O)OC2)c1ncc[nH]c1=O [Compound 8, N-(1-hydroxy-1,3-dihydrobenzo[c][1,2]oxaborol-6-yl)-3-oxo-3,4-dihydropyrazine-2-carboxamide] as the molecule, how does the melting point read?
Answer: 326.4 to 328.3 °C (dec.)

Question: And the MIC ([1]; 24h incubation)?
Answer: > 500 µM

Question: And the MIC ([1]; 48h incubation)?
Answer: > 500 µM

Question: What about the MIC ([2]; 24 h) of the same molecule?
Answer: 125 µM (≈ 33.9 µg/mL)

Question: And the MIC ([2]; 48 h)?
Answer: 125 µM (≈ 33.9 µg/mL)

Question: And the MIC ([3]; Middlebrook 7H9, resazurin)?
Answer: 28.8 µM (≈ 7.81 µg/mL)

Question: And the MIC ([4]; 72h incubation)?
Answer: > 500 µM

Question: What about the MIC ([4]; 120h incubation) of the same molecule?
Answer: > 500 µM

Question: What about the MIC ([5]; pH 6.6, MABA, Middlebrook 7H9 pH 6.6, recalculated from µg/mL, read-out: MIC Mtb H37Rv) of the same molecule?
Answer: 92.2 µM (≈ 25 µg/mL)

Question: And the MIC ([6]; 24 h)?
Answer: 125 µM (≈ 33.9 µg/mL)

Question: What about the MIC ([6]; 48 h) of the same molecule?
Answer: 125 µM (≈ 33.9 µg/mL)

Question: What about the MIC ([7]; CCM8077, 24h incubation) of the same molecule?
Answer: > 500 µM

Question: And the MIC ([7]; CCM8077, 48h incubation)?
Answer: > 500 µM

Question: And the MIC ([8]; 24h incubation)?
Answer: > 500 µM

Question: What about the MIC ([8]; 48h incubation) of the same molecule?
Answer: > 500 µM

Question: What about the MIC ([9]; ATCC204305, 24h incubation) of the same molecule?
Answer: > 500 µM

Question: What about the MIC ([9]; ATCC204305, 48h incubation) of the same molecule?
Answer: > 500 µM

Question: What about the MIC ([10]; 24h incubation) of the same molecule?
Answer: > 500 µM

Question: And the MIC ([10]; 48h incubation)?
Answer: > 500 µM

Question: And the MIC ([11]; Middlebrook 7H9, resazurin, recalculated from µg/mL, read-out: MIC Mtb H37Ra)?
Answer: 231 µM (≈ 62.5 µg/mL)

Question: What about the MIC ([12]; 24h incubation) of the same molecule?
Answer: > 500 µM

Question: And the MIC ([12]; 48h incubation)?
Answer: > 500 µM

Question: What about the MIC [13] of the same molecule?
Answer: 57.6 µM (≈ 15.6 µg/mL)

Question: What about the MIC ([14]; 24h incubation) of the same molecule?
Answer: > 500 µM

Question: And the MIC ([14]; 48h incubation)?
Answer: > 500 µM

Question: And the MIC ([15]; 24h incubation)?
Answer: > 500 µM

Question: And the MIC ([15]; 48h incubation)?
Answer: > 500 µM

Question: And the MIC ([16]; 24h incubation)?
Answer: > 500 µM

Question: What about the MIC ([16]; 48h incubation) of the same molecule?
Answer: > 500 µM

Question: And the MIC [17]?
Answer: 231 µM (≈ 62.5 µg/mL)

Question: What about the MIC ([18]; 24h incubation) of the same molecule?
Answer: > 500 µM

Question: What about the MIC ([18]; 48h incubation) of the same molecule?
Answer: > 500 µM

Question: And the MIC ([19]; 24h incubation)?
Answer: > 500 µM

Question: What about the MIC ([19]; 48h incubation) of the same molecule?
Answer: > 500 µM

Question: And the MIC [20]?
Answer: 28.8 µM (≈ 7.81 µg/mL)

Question: What about the MIC ([21]; 24h incubation) of the same molecule?
Answer: 500 µM (≈ 136 µg/mL)

Question: And the MIC ([21]; 48h incubation)?
Answer: 500 µM (≈ 136 µg/mL)

Question: What about the IC50 (HepG2 cell line) of the same molecule?
Answer: > 1000 µM

Question: What about the MIC ([22]; CCM8363, 24h incubation) of the same molecule?
Answer: > 500 µM

Question: What about the MIC ([22]; CCM8363, 48h incubation) of the same molecule?
Answer: > 500 µM

Source: paper PMC9917560, “Design, Synthesis and Antimicrobial Evaluation of New N-(1-Hydroxy-1,3-dihydrobenzo[c][1,2]oxaborol-6-yl)(hetero)aryl-2-carboxamides as Potential Inhibitors of Mycobacterial Leucyl-tRNA Synthetase” (International Journal of Molecular Sciences, 2023)
